One assay has as its target hSTING(R232) (Homo sapiens, UniProt Q86WV6, H232R). Briefly: Luciferase reporter assay in HEK293T-hSTING-Luciferase cells, R232 (wild type) human STING. Particulars: 20 hr stimulation. It is filed as cell-based. The method in brief: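 After 20 hr compound stimulation of 5×10^5 cells, secreted luciferase in the supernatant was measured by luminescence; values are fold-induction over baseline and EC50. The line is a clonal HEK293T stably carrying a STING plasmid (pUNO-1) and a luciferase reporter under five tandem ISREs fused to an ISG54 promoter.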
In general terms: In a reporter assay the amount or activity of a reporter protein is the signal.

Assay [1] deals with cynomolgus monkey STING protein (Macaca fascicularis, UniProt A0A2R3XZA6). In words: Luciferase reporter assay, cynomolgus monkey STING overexpressed in HEK293T cells. It is filed as cell-based. Here is the method:
5×10^5 clonally selected HEK293T-hSTING-Luciferase cells were seeded in 384-well plates in growth medium and stimulated with novel compounds. After 20 hr of stimulation supernatant were removed and secretary reporter gene activity were measured using the Quanti-Luc detection system (Invivogen) on a Spectramax i3X luminometer.
In the tables below, EC50 value ranges for exemplary compounds are given.
Selected compounds were further tested against cynomolgus monkey STING protein overexpressed in HEK293T cells.

The mark [2] stands for this setting: read-out: R232 human activity (EC50 range).
The mark [3] stands for this setting: cynomolgus monkey STING overexpressed in HEK293T cells, read-out: Cynomolgus monkey STING activity (EC50 range).

Molecules are shown by their SMILES. Where a name gives a salt, the structure may show the parent alone. Read-outs that look alike come from different tables or passages of the source. A value given as a limit tells only on which side of the number the result lay.

Chain of hSTING(R232) (Q86WV6 whole entry H232R, the tested form may be a part): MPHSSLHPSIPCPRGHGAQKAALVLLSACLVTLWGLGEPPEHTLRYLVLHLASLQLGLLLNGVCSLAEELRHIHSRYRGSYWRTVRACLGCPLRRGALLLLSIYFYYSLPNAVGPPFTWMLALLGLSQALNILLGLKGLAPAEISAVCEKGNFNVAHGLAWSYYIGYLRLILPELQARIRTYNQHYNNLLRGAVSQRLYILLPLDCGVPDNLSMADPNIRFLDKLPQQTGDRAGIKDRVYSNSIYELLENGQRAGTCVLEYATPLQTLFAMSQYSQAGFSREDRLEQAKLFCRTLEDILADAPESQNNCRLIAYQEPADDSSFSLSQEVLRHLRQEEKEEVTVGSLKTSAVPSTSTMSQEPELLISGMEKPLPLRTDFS
Chain of cynomolgus monkey STING protein (A0A2R3XZA6 entry or part of it): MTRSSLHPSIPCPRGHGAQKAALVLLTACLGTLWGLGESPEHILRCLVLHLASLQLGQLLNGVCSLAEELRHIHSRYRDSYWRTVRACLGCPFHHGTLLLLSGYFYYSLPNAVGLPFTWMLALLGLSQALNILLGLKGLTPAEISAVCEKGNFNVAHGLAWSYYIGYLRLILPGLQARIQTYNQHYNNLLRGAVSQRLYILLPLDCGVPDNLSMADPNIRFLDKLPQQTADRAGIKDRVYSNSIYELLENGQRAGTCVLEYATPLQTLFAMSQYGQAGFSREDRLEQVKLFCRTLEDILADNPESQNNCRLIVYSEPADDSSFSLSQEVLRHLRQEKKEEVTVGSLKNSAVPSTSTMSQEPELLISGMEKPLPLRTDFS

Usually EC50 stands for the concentration at which the effect is half-maximal. As for `C[C@H]1c2ccc(C(=O)NCc3c(F)cc(F)cc3F)cc2N(Cc2c(F)cc(F)cc2OP(=O)(O)O)C(=O)N1C` [Example 105, (S)-2-((3,4-dimethyl-2-oxo-7-((2,4,6-trifluorobenzyl)carbamoyl)-3,4-dihydroquinazolin-1(2H)-yl)methyl)-3,5-difluorophenyl dihydrogen phosphate], the EC50 (at hSTING(R232) (setting [2]); in assay [1] (setting [3])) was under 1000 nM each time.
For `C[C@H]1c2ccc(C(=O)NCc3c(F)cc(F)cc3F)cc2N(Cc2c(F)ccc(OCCO)c2F)C(=O)N1C` [Example 256, (S)-1-(2,6-difluoro-3-(2-hydroxyethoxy)benzyl)-3,4-dimethyl-2-oxo-N-(2,4,6-trifluorobenzyl)-1,2,3,4-tetrahydroquinazoline-7-carboxamide], the concentration giving a half-maximal response (EC50) at hSTING(R232) (setting [2]) was under 1000 nM; in assay [1] (setting [3]) it was 1000 to 10000 nM.
The corresponding values for `C[C@H]1c2ccc(C(=O)NCc3c(F)cc(F)cc3F)cc2N(Cc2c(F)cc(F)cc2OCCCOP(=O)(O)O)C(=O)N1C` [Example 94, (S)-3-(2-((3,4-dimethyl-2-oxo-7-((2,4,6-trifluorobenzyl)carbamoyl)-3,4-dihydroquinazolin-1(2H)-yl)methyl)-3,5-difluorophenoxy)propyl dihydrogen phosphate] are under 1000 nM and over 10000 nM.
The corresponding values for `C[C@H]1c2ccc(C(=O)NCc3c(F)cc(F)cc3F)cc2N(Cc2c(F)ccc(O)c2F)C(=O)N1C` [Example 255, (S)-1-(2,6-difluoro-3-hydroxybenzyl)-3,4-dimethyl-2-oxo-N-(2,4,6-trifluorobenzyl)-1,2,3,4-tetrahydroquinazoline-7-carboxamide] are under 1000 nM and under 1000 nM.
The corresponding values for `COc1ccc(F)c(F)c1CN1C(=O)N(C)C(C)c2ccc(C(=O)NCc3c(F)cc(F)cc3F)cc21` (centres unmarked) [Example 178, 1-(2,3-difluoro-6-methoxybenzyl)-3,4-dimethyl-2-oxo-N-(2,4,6-trifluorobenzyl)-1,2,3,4-tetrahydroquinazoline-7-carboxamide] are under 1000 nM and under 1000 nM.
Take `C[C@H]1c2ccc(C(=O)NCc3c(F)cc(F)cc3F)cc2N(Cc2cc(OCCCO)ccc2F)C(=O)N1C` [Example 271, (S)-1-(2-fluoro-5-(3-hydroxypropoxy)benzyl)-3,4-dimethyl-2-oxo-N-(2,4,6-trifluorobenzyl)-1,2,3,4-tetrahydroquinazoline-7-carboxamide]: the EC50 at hSTING(R232) (setting [2]) was under 1000 nM; in assay [1] (setting [3]), 1000 to 10000 nM.
On to `COc1ncc(Cl)c(CN2C(=O)N(C)[C@@H](C)c3ccc(C(=O)NCc4c(F)cc(F)cc4F)cc32)c1F` [Example 184, (S)-1-((5-chloro-3-fluoro-2-methoxypyridin-4-yl)methyl)-3,4-dimethyl-2-oxo-N-(2,4,6-trifluorobenzyl)-1,2,3,4-tetrahydroquinazoline-7-carboxamide], for which the half-maximal effective concentration (EC50) (at hSTING(R232) (setting [2]); in assay [1] (setting [3])) was under 1000 nM throughout.
For `CNCCN(C)C(=O)Oc1ccc(F)c(CN2C(=O)N(C)[C@@H](C)c3ccc(C(=O)NCc4c(F)cc(F)cc4F)cc32)c1Cl` [Example 300, (S)-2-chloro-3-((3,4-dimethyl-2-oxo-7-((2,4,6-trifluorobenzyl)carbamoyl)-3,4-dihydroquinazolin-1(2H)-yl)methyl)-4-fluorophenyl-methyl(2-(methylamino)ethyl)carbamate hydrochloride], the EC50 (at hSTING(R232) (R232 human activity (EC50 range)); in assay [1]) was under 1000 nM in each case.
In the case of `C[C@H]1c2ccc(C(=O)NCc3c(F)cc(F)cc3F)cc2N(Cc2c(F)cc(OCOP(=O)(O)O)cc2F)C(=O)N1C` [Example 83, (S)-(4-((3,4-dimethyl-2-oxo-7-((2,4,6-trifluorobenzyl)carbamoyl)-3,4-dihydroquinazolin-1(2H)-yl)methyl)-3,5-difluorophenoxy)methyl dihydrogen phosphate], the EC50 (at hSTING(R232) (setting [2]); in assay [1] (setting [3])) was under 1000 nM each time.
Regarding `Cc1cccc(CN2C(=O)N(C)C(C)c3ccc(C(=O)NCc4c(F)cc(F)cc4F)cc32)c1F` (centres unmarked) [Example 164, 1-(2-fluoro-3-methylbenzyl)-3,4-dimethyl-2-oxo-N-(2,4,6-trifluorobenzyl)-1,2,3,4-tetrahydroquinazoline-7-carboxamide], the concentration for a half-maximal effect (EC50) (at hSTING(R232) (setting [2]); in assay [1] (setting [3])) was under 1000 nM throughout.
Consider `COc1ccc(F)c(CN2C(=O)N(C)[C@@H](C)c3ccc(C(=O)NCc4c(F)cc(F)cc4F)cc32)c1F` [Example 258, (S)-1-(2,6-difluoro-3-methoxybenzyl)-3,4-dimethyl-2-oxo-N-(2,4,6-trifluorobenzyl)-1,2,3,4-tetrahydroquinazoline-7-carboxamide], for which the EC50 (on hSTING(R232) (setting [2]); in assay [1] (setting [3])) was under 1000 nM each time.
In the case of `COc1ccc(F)c(CN2C(=O)N(C)C(C)c3ccc(C(=O)NCc4c(F)cc(F)cc4F)cc32)c1` (centres unmarked) [Example 166, 1-(2-fluoro-5-methoxybenzyl)-3,4-dimethyl-2-oxo-N-(2,4,6-trifluorobenzyl)-1,2,3,4-tetrahydroquinazoline-7-carboxamide], the values for the EC50 (on hSTING(R232) (setting [2]); in assay [1] (setting [3])) were under 1000 nM and 1000 to 10000 nM, respectively.
In the case of `C[C@H]1c2ccc(C(=O)NCc3c(F)cc(F)cc3F)cc2N(Cc2c(F)cc(OC(=O)N(C)CCC(=O)OCc3ccccc3)cc2F)C(=O)N1C` [Example 86, (S)-Benzyl-3-(((4-((3,4-dimethyl-2-oxo-7-((2,4,6-trifluorobenzyl)carbamoyl)-3,4-dihydroquinazolin-1(2H)-yl)methyl)-3,5-difluorophenoxy)carbonyl)(methyl)amino)propanoate], the EC50 (at hSTING(R232) (setting [2]); in assay [1]) was 1000 to 10000 nM throughout.
`C[C@H]1c2ccc(C(=O)NCc3c(F)cc(F)cc3F)cc2N(Cc2ccc(OP(=O)(O)O)cc2F)C(=O)N1C` [Example 92, (S)-4-((3,4-dimethyl-2-oxo-7-((2,4,6-trifluorobenzyl)carbamoyl)-3,4-dihydroquinazolin-1(2H)-yl)methyl)-3-fluorophenyl dihydrogen phosphate]: at hSTING(R232) (setting [2]), the concentration for a half-maximal effect (EC50) is under 1000 nM.
On to `CN1Cc2ccc(C(=O)NCc3ccccc3F)cc2N(Cc2c(F)cccc2Cl)C1=O` [Example 30, 1-(2-chloro-6-fluorobenzyl)-N-(2-fluorobenzyl)-3-methyl-2-oxo-1,2,3,4-tetrahydroquinazoline-7-carboxamide], for which the 50% effective concentration (EC50) at hSTING(R232) (setting [2]) is 1000 to 10000 nM.
Same read-out and setting: then `Cc1nn(C)c(CN2C(=O)N(C)C(C)c3ccc(C(=O)NCc4cc5cc(F)ccc5o4)cc32)c1F` (centres unmarked) [Example 224, 1-((4-fluoro-1,3-dimethyl-1H-pyrazol-5-yl)methyl)-N-((5-fluorobenzofuran-2-yl)methyl)-3,4-dimethyl-2-oxo-1,2,3,4-tetrahydroquinazoline-7-carboxamide], with under 1000 nM; and `CON1Cc2ccc(C(=O)NCc3c(F)cc(F)cc3F)cc2N(Cc2c(F)cccc2Cl)C1=O` [Example 49, 1-(2-chloro-6-fluorobenzyl)-3-methoxy-2-oxo-N-(2,4,6-trifluorobenzyl)-1,2,3,4-tetrahydroquinazoline-7-carboxamide], with 1000 to 10000 nM; and `Cc1oc(-c2ccc(F)cc2)nc1CN1C(=O)N(C)Cc2ccc(C(=O)NCc3c(F)cc(F)cc3F)cc21` [Example 42, l-((2-(4-fluorophenyl)-5-methyloxazol-4-yl)methyl)-3-methyl-2-oxo-N-(2,4,6-trifluorobenzyl)-1,2,3,4-tetrahydroquinazoline-7-carboxamide], with 1000 to 10000 nM.
For the compound `Cc1cccc(CN2C(=O)N(C)Cc3ccc(C(=O)NCc4c(F)cc(F)cc4F)cc32)c1F` [Example 13, 1-(2-fluoro-3-methylbenzyl)-3-methyl-2-oxo-N-(2,4,6-trifluorobenzyl)-1,2,3,4-tetrahydroquinazoline-7-carboxamide], the EC50 on hSTING(R232) (setting [2]) is under 1000 nM.
For `O=C(NCc1c(F)cc(F)cc1F)c1ccc2c(c1)N(Cc1c(F)cccc1Cl)C(=O)N(OCc1ccccc1)C2` [Example 68, 3-(benzyloxy)-1-(2-chloro-6-fluorobenzyl)-2-oxo-N-(2,4,6-trifluorobenzyl)-1,2,3,4-tetrahydroquinazoline-7-carboxamide], the concentration for a half-maximal effect (EC50) on hSTING(R232) (setting [2]) was over 10000 nM.
Same read-out and setting: then `CN1Cc2ncc(C(=O)NCc3c(F)cc(F)cc3F)cc2N(Cc2cc(F)cc(F)c2)C1=O` [Example 72, 1-(3,5-difluorobenzyl)-3-methyl-2-oxo-N-(2,4,6-trifluorobenzyl)-1,2,3,4-tetrahydropyrido[3,2-d]pyrimidine-7-carboxamide], with 1000 to 10000 nM.
On the same count and under the same terms, the value for `CN1Cc2ccc(C(=O)NCc3cccc4c3OCCO4)cc2N(Cc2c(F)cccc2Cl)C1=O` [Example 44, l-(2-chloro-6-fluorobenzyl)-N-((2,3-dihydrobenzo[b][1,4]dioxin-5-yl)methyl)-3-methyl-2-oxo-1,2,3,4-tetrahydroquinazoline-7-carboxamide] was over 10000 nM; that for `Cc1ccc(Cl)c(CN2C(=O)N(C)Cc3ccc(C(=O)NCc4c(F)cc(F)cc4F)cc32)c1F` [Example 66, 1-(6-chloro-2-fluoro-3-methylbenzyl)-3-methyl-2-oxo-N-(2,4,6-trifluorobenzyl)-1,2,3,4-tetrahydroquinazoline-7-carboxamide] was under 1000 nM.
On the same count and under the same terms, then `CC1c2ccc(C(=O)NCc3c(F)cc(F)cc3F)cc2N(Cc2c(F)cc(F)cc2OC(F)(F)F)C(=O)N1C` (centres unmarked) [Example 210, 1-(2,4-difluoro-6-(trifluoromethoxy)benzyl)-3,4-dimethyl-2-oxo-N-(2,4,6-trifluorobenzyl)-1,2,3,4-tetrahydroquinazoline-7-carboxamide], with under 1000 nM; and `CC1c2ccc(C(=O)NCc3c(F)cc(F)cc3F)cc2N(Cc2ccccc2)C(=O)N1C` (centres unmarked) [Example 192, 1-benzyl-3,4-dimethyl-2-oxo-N-(2,4,6-trifluorobenzyl)-1,2,3,4-tetrahydroquinazoline-7-carboxamide], with under 1000 nM.
